The record followed here is ChEMBL document CHEMBL1201862, “PubChem BioAssay data set” (2004).

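Dose response: 5 concentrations. Exposure: 48 h. Format: 96-well plates. Endpoint: linear interpolation; highest concentration if not reached. GI50 is the concentration that inhibits growth by half.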 Activity calls are given as the source filed them. No stated cut-off is given here; in the data, active = GI50 up to about 1.1 µM and inactive = higher. A value given as a limit tells only on which side of the number the result lay.

Test systems include DU-145; HOP-92; K562; SK-MEL-28; UACC-62; HOP-62; SK-MEL-2; HT-29; TK-10; NCI-H226; Malme-3M; SK-MEL-5; RPMI-8226; MCF7; HCT-15; SNB-19; NCI-H460; SNB-75; SF-539.
Test in all cases: NCI tumour cell line growth inhibition, 48 h

On to `CN(C)Cc1cc(C(=O)/C=C/c2c(F)cccc2Cl)cc(CN(C)C)c1O`, for which the GI50 is 8.77 µM (inactive) with DU-145; 7.52 µM (inactive) with HOP-92; 4.09 µM (inactive) in the assay with K562; 14.5 µM (inactive) in the assay with SK-MEL-28; 12.3 µM (inactive) in the assay with UACC-62; 12 µM (inactive) in the assay with HOP-62. In addition, the GI50 is 15.6 µM (inactive) in the assay with SK-MEL-2; 10.9 µM (inactive) in the assay on HT-29; 3.04 µM (inactive) with TK-10; 13.5 µM (inactive) with NCI-H226; 11.8 µM (inactive) with Malme-3M; 15.3 µM (inactive) in the assay on SK-MEL-5. Further, the GI50 in the assay with RPMI-8226 was 17.2 µM (inactive); in the assay with MCF7, 3.03 µM (inactive); in the assay with HCT-15 it was 4.34 µM; in the assay on SNB-19 it was 18.1 µM (inactive); in the assay on NCI-H460, 2.37 µM (inactive); with SNB-75 it was 8.53 µM (inactive).
On to `CC(C)C(C(=O)O)N1C(=O)c2ccccc2C1=O` (configuration not stated), for which the GI50 in the assay with DU-145, in the assay on HOP-92, in the assay with K562, in the assay on SK-MEL-28, in the assay on UACC-62 and with HOP-62 was > 100 µM (inactive) in each case. The GI50 is 0.18 µM (active) in the assay with SK-MEL-2; > 100 µM (inactive) in the assay with HT-29; > 100 µM (inactive) in the assay with TK-10; > 100 µM (inactive) in the assay with NCI-H226; > 100 µM (inactive) with Malme-3M; > 100 µM (inactive) in the assay with SK-MEL-5. The GI50 is > 100 µM (inactive) in the assay on RPMI-8226; > 100 µM (inactive) in the assay on MCF7; more than 100 µM in the assay with HCT-15; > 100 µM (inactive) in the assay with SNB-19; > 100 µM (inactive) in the assay with NCI-H460; > 100 µM (inactive) with SNB-75.
For the molecule `CC(=O)O[C@@H]1[C@@H](C)[C@]2(CC(c3ccoc3)OC2O)C2CCC3O[C@]3(C)[C@]2(C)[C@@H]1OC(C)=O` (some centres not stated), the GI50 in the assay with DU-145 was 48.1 µM (inactive); in the assay on HOP-92 it was 34 µM (inactive); with SK-MEL-28, 25.9 µM (inactive); with SF-539 it was 22.7 µM (inactive); in the assay on UACC-62 it was 20.4 µM (inactive); in the assay with SK-MEL-2, 57.4 µM (inactive). The GI50 in the assay with HT-29 is 32 µM (inactive); in the assay with TK-10, 47.5 µM (inactive); in the assay on NCI-H226, 27.7 µM (inactive); in the assay with SK-MEL-5, 25.4 µM (inactive); with RPMI-8226, 25.9 µM (inactive); in the assay on MCF7 it was 41.5 µM (inactive). Further, the GI50 in the assay on HCT-15 was 25.4 µM; with SNB-19 it was > 100 µM (inactive); in the assay on NCI-H460, 29.7 µM (inactive); in the assay on SNB-75, 46.7 µM (inactive).
On to `NCCCCc1cc(O)c2c(c1O)C(=O)c1ccccc1C2=O`, for which the GI50 in the assay with DU-145 was 12 µM (inactive); in the assay on HOP-92, 14.4 µM (inactive); with K562, 3.1 µM (inactive); with SK-MEL-28 it was 17.5 µM (inactive); in the assay on SF-539 it was 6.75 µM (inactive); in the assay with UACC-62, 17.5 µM (inactive). Also, the GI50 with HOP-62 is 8.39 µM (inactive); in the assay with SK-MEL-2, 17.4 µM (inactive); in the assay with HT-29, 4.19 µM (inactive); with TK-10, 15.4 µM (inactive); in the assay with NCI-H226, 4.56 µM (inactive); with Malme-3M, 14.7 µM (inactive). The GI50 in the assay with SK-MEL-5 was 12.4 µM (inactive); in the assay on RPMI-8226, 7.13 µM (inactive); in the assay with MCF7 it was 5.41 µM (inactive); in the assay with HCT-15, 9.25 µM; in the assay on SNB-19 it was 14.2 µM (inactive); with NCI-H460 it was 10.5 µM (inactive).
Turning to `CCCCOC(=O)C1CC[C@H]2[C@@H]3CCc4cc(OC(=O)c5cccc6c(=O)c7ccccc7[nH]c56)ccc4[C@H]3CC[C@]12C` (some centres not stated), the GI50 was 8.17 µM (inactive) in the assay with DU-145; 8.3 µM (inactive) in the assay with HOP-92; 9.98 µM (inactive) in the assay on K562; 11 µM (inactive) with SK-MEL-28; 6.84 µM (inactive) with UACC-62; 9.35 µM (inactive) with HOP-62. The GI50 was 9.91 µM (inactive) in the assay on SK-MEL-2; 10.4 µM (inactive) in the assay on HT-29; 7.96 µM (inactive) in the assay with TK-10; 11.4 µM (inactive) in the assay on NCI-H226; 10.9 µM (inactive) with Malme-3M; 6.46 µM (inactive) in the assay with SK-MEL-5. Besides, the GI50 with RPMI-8226 is 9.06 µM (inactive); in the assay on MCF7 it was 13.3 µM (inactive); in the assay on HCT-15, 6.98 µM; with SNB-75 it was 10.4 µM (inactive).
Take `COc1ccccc1N1C(=O)CS(=O)(=O)C1c1cccc(Oc2ccccc2)c1` (configuration not stated): the GI50 in the assay on DU-145 was 23.9 µM (inactive); in the assay on HOP-92, 10.8 µM (inactive); in the assay on K562, 4.06 µM (inactive); in the assay with SK-MEL-28, 17.5 µM (inactive); with SF-539, 16 µM (inactive); with UACC-62 it was 12.1 µM (inactive). For the same molecule, the GI50 in the assay with HOP-62 is 18.6 µM (inactive); in the assay on SK-MEL-2, 13 µM (inactive); in the assay with HT-29, 21.4 µM (inactive); in the assay on TK-10 it was 18.5 µM (inactive); in the assay with NCI-H226, 14.6 µM (inactive); in the assay with Malme-3M, 15 µM (inactive). Also, the GI50 is 14.4 µM (inactive) in the assay with SK-MEL-5; 6.21 µM (inactive) in the assay on MCF7; 12.1 µM in the assay on HCT-15; 18 µM (inactive) with SNB-19; 15.2 µM (inactive) in the assay with NCI-H460; 20 µM (inactive) in the assay on SNB-75.
`O=C(Cc1ccccc1)NN1C(=O)/C(=C\c2ccc([N+](=O)[O-])cc2)S/C1=N\c1ccccc1`: the GI50 was > 100 µM (inactive) with DU-145; 68.9 µM (inactive) with HOP-92; 42.5 µM (inactive) in the assay with K562; > 100 µM (inactive) with SK-MEL-28; > 100 µM (inactive) with SF-539; 61.1 µM (inactive) with UACC-62. For the same molecule, the GI50 in the assay on HOP-62, with SK-MEL-2, in the assay on HT-29, in the assay on TK-10, in the assay on NCI-H226 and with SK-MEL-5 was > 100 µM (inactive) in each case. Moreover, the GI50 with RPMI-8226 is > 100 µM (inactive); with MCF7, 63.2 µM (inactive); with HCT-15 it was more than 100 µM; with SNB-19, > 100 µM (inactive); in the assay on NCI-H460, > 100 µM (inactive); with SNB-75 it was > 100 µM (inactive).
As for `Cc1nc2nc3c(ncn3COCCO)c(O)n2c1C(c1ccccc1)(c1ccccc1)c1ccccc1`, the GI50 was 12.5 µM (inactive) in the assay on DU-145; 16.7 µM (inactive) in the assay on HOP-92; 9.25 µM (inactive) in the assay with K562; 20 µM (inactive) with SK-MEL-28; 6.25 µM (inactive) in the assay on SF-539; 11.4 µM (inactive) in the assay on UACC-62. The GI50 in the assay on HOP-62 is 18.6 µM (inactive); with SK-MEL-2 it was 14.5 µM (inactive); in the assay on HT-29 it was 11.7 µM (inactive); with TK-10 it was 16.6 µM (inactive); with Malme-3M, 18.3 µM (inactive); in the assay with SK-MEL-5, 15.4 µM (inactive). In addition, the GI50 is 12 µM (inactive) with RPMI-8226; 10.2 µM (inactive) in the assay with MCF7; 1.6 µM with HCT-15; 14.8 µM (inactive) in the assay on SNB-19; 15.2 µM (inactive) in the assay with NCI-H460; 12.8 µM (inactive) in the assay with SNB-75.
Turning to `O=C(O)CCc1nc2c(n1-c1ccccc1)C(=O)c1ccccc1C2=O`, the GI50 in the assay on DU-145 is > 100 µM (inactive); with HOP-92, 0.0226 µM (active); in the assay on K562, > 100 µM (inactive); in the assay on SK-MEL-28, > 100 µM (inactive); in the assay on SF-539 it was > 100 µM (inactive); in the assay on UACC-62, > 100 µM (inactive). The GI50 is > 100 µM (inactive) with HOP-62; 95.9 µM (inactive) in the assay on SK-MEL-2; > 100 µM (inactive) with HT-29; > 100 µM (inactive) with TK-10; > 100 µM (inactive) with NCI-H226; > 100 µM (inactive) in the assay with SK-MEL-5. Further, the GI50 with RPMI-8226 was > 100 µM (inactive); with MCF7, 97.7 µM (inactive); with HCT-15 it was more than 100 µM; in the assay with SNB-19 it was > 100 µM (inactive); with NCI-H460, > 100 µM (inactive); with SNB-75, > 100 µM (inactive).
As for `CCCC(=O)N(C(=O)CCC)C1=C(Cl)C(=O)c2ccccc2C1=O`, the GI50 in the assay with DU-145 was 14 µM (inactive); in the assay on HOP-92, 4.01 µM (inactive); with K562 it was 2.18 µM (inactive); in the assay with SK-MEL-28, 3.72 µM (inactive); in the assay with SF-539 it was 3.62 µM (inactive); with UACC-62, 2.49 µM (inactive). Besides, the GI50 in the assay on HOP-62 is 11.9 µM (inactive); with SK-MEL-2, 4.42 µM (inactive); with HT-29, 8.51 µM (inactive); in the assay with TK-10 it was 4.1 µM (inactive); with NCI-H226, 8.38 µM (inactive); in the assay on SK-MEL-5, 3.1 µM (inactive). Besides, the GI50 in the assay on MCF7 was 1.84 µM (inactive); in the assay with HCT-15, 2.1 µM; in the assay with SNB-19, 6.73 µM (inactive); in the assay with NCI-H460, 5.22 µM (inactive); in the assay on SNB-75 it was 3.18 µM (inactive).
Turning to `O=C1Nc2ccccc2/C1=N/Nc1ccc([N+](=O)[O-])cc1[N+](=O)[O-]`, the GI50 is 7.82 µM (inactive) in the assay with DU-145; 3.58 µM (inactive) with HOP-92; 32.4 µM (inactive) in the assay with K562; 63 µM (inactive) in the assay on SK-MEL-28; 2.48 µM (inactive) with SF-539; 20.3 µM (inactive) with UACC-62. The GI50 in the assay with HOP-62 was 9.04 µM (inactive); in the assay with HT-29, 19.1 µM (inactive); in the assay with TK-10, 9.08 µM (inactive); in the assay with NCI-H226, 12 µM (inactive); in the assay on SK-MEL-5 it was 10.6 µM (inactive); in the assay with RPMI-8226, 26.1 µM (inactive). The GI50 in the assay with MCF7 was 8.67 µM (inactive); in the assay with HCT-15 it was 13.8 µM; with SNB-19, 19.4 µM (inactive); in the assay on NCI-H460 it was 7.89 µM (inactive); in the assay on SNB-75, 18.7 µM (inactive).
